Literature values in patent US7915270B2, “Oxazole ketones as modulators of fatty acid amide hydrolase” (The Scripps Research Institute, priority 2006, dated 2011).

Legend:
[1] = tested on: spasticity; settings: Baker 2001; cited from earlier work
[2] = tested on: anxiety; settings: rats; Kathuria 2003; cited from earlier work
[3] = tested on: thermal nociception; settings: rat; Kathuria 2003; cited from earlier work
[4] = rat; Kathuria 2003; cited from earlier work

Compound | spasticity in CREAE mice [1] | efficacy in the zero plus maze model of anxiety [2] | analgesic efficacy in the hot plate test [3] | analgesic efficacy in the formalin test [4]
CCCCCCCCCCCCCCCCS(=O)(=O)F [AM374] | significantly reduce spasticity | – | – | –
NC(=O)c1cccc(-c2cccc(OC(=O)NC3CCCCC3)c2)c1 [URB-597] | – | efficacy | analgesic efficacy | analgesic efficacy
